# Experimental data from ChEMBL document CHEMBL3885861, “Open TG-GATES”.
# Organism: Rattus norvegicus
# Assay: Open TG-GATES - Regimen: Daily Repeat
# Type: toxicity, organism-based, Sprague-Dawley
# Design: regimen Daily Repeat, gender Male, age 6 weeks
# Settings: in vivo, po, 0 mg/kg, route gavage, dose level Control; for APTT / Bas / Eos / Fbg / Hb / Ht / Lym / MCH / MCHC / MCV / Mono / Neu / PT / Plat / RBC / Ret / WBC: tissue Blood; for KIDNEY_L / KIDNEY_R / KIDNEY_TOTAL: tissue Kidney; for LIVER: tissue Liver; for A/G / ALP / ALT / AST / BUN / CRE / Ca / Cl / DBIL / GLC / IP / K / LDH / Na / PL / RALB / TBIL / TC / TG / TP / gamma-GTP: tissue Plasma
compound,measurement,setting,value
CCc1oc2ccccc2c1C(=O)c1cc(I)c(O)c(I)c1 [BENZIODARONE],TERMINAL_BW,"72 h, time 3 day",239.1 g
same,APTT,"72 h, time 3 day",17.3 s
same,Bas,"72 h, time 3 day",0%
same,Eos,"72 h, time 3 day",0.8%
same,Fbg,"72 h, time 3 day",216.8 mg/dL
same,Hb,"72 h, time 3 day",14.1 g/dL
same,Ht,"72 h, time 3 day",41.9%
same,Lym,"72 h, time 3 day",76.2%
same,MCH,"72 h, time 3 day",21.4 pg
same,MCHC,"72 h, time 3 day",33.7%
same,MCV,"72 h, time 3 day",63.6 fL
same,Mono,"72 h, time 3 day",7%
same,Neu,"72 h, time 3 day",15.6%
same,PT,"72 h, time 3 day",11.7 s
same,Plat,"72 h, time 3 day",125.7 x10_4/uL
same,RBC,"72 h, time 3 day",658.4 x10_4/ul
same,Ret,"72 h, time 3 day",6.2%
same,WBC,"72 h, time 3 day",99.6 x10_2/uL
same,KIDNEY_L,"72 h, time 3 day",1.1 g
same,KIDNEY_R,"72 h, time 3 day",1.1 g
same,KIDNEY_TOTAL,"72 h, time 3 day",2.2 g
same,LIVER,"72 h, time 3 day",11.6 g
same,A/G,"72 h, time 3 day",1.8
same,ALP,"72 h, time 3 day",882.4 IU/L
same,ALT,"72 h, time 3 day",39 IU/L
same,AST,"72 h, time 3 day",62.6 IU/L
same,BUN,"72 h, time 3 day",17.4 mg/dL
same,CRE,"72 h, time 3 day",0.5 mg/dL
same,Ca,"72 h, time 3 day",10.7 mg/dL
same,Cl,"72 h, time 3 day",104.6 meq/L
same,DBIL,"72 h, time 3 day",0.014 mg/dL
same,GLC,"72 h, time 3 day",203.2 mg/dL
same,IP,"72 h, time 3 day",7.2 mg/dL
same,K,"72 h, time 3 day",4.7 meq/L
same,LDH,"72 h, time 3 day",79.6 IU/L
same,Na,"72 h, time 3 day",141 meq/L
same,PL,"72 h, time 3 day",147.4 mg/dL
same,RALB,"72 h, time 3 day",3.7 g/dL
same,TBIL,"72 h, time 3 day",0.3 mg/dL
same,TC,"72 h, time 3 day",75.4 mg/dL
same,TG,"72 h, time 3 day",103.6 mg/dL
same,TP,"72 h, time 3 day",5.7 g/dL
same,gamma-GTP,"72 h, time 3 day",1.2 IU/L
same,TERMINAL_BW,"[…], time 7 day",272.7 g
same,TERMINAL_BW,"[…], time 14 day",335.3 g
same,TERMINAL_BW,"[…], time 28 day",397 g
same,APTT,"[…], time 7 day",16.8 s
same,Bas,"[…], time 7 day",0%
same,Eos,"[…], time 7 day",1%
same,Fbg,"[…], time 7 day",220 mg/dL
same,Hb,"[…], time 7 day",14.2 g/dL
same,Ht,"[…], time 7 day",41.6%
same,Lym,"[…], time 7 day",77.8%
same,MCH,"[…], time 7 day",21.4 pg
same,MCHC,"[…], time 7 day",34.1%
same,MCV,"[…], time 7 day",62.8 fL
same,Mono,"[…], time 7 day",7.2%
same,Neu,"[…], time 7 day",14.2%
same,PT,"[…], time 7 day",11.5 s
same,Plat,"[…], time 7 day",125.2 x10_4/uL
same,RBC,"[…], time 7 day",662.2 x10_4/ul
same,Ret,"[…], time 7 day",4.5%
same,WBC,"[…], time 7 day",108.6 x10_2/uL
same,APTT,"[…], time 14 day",17.1 s
same,Bas,"[…], time 14 day",0%
same,Eos,"[…], time 14 day",1%
same,Fbg,"[…], time 14 day",220.6 mg/dL
same,Hb,"[…], time 14 day",14.2 g/dL
same,Ht,"[…], time 14 day",41.9%
same,Lym,"[…], time 14 day",80.8%
same,MCH,"[…], time 14 day",20.9 pg
same,MCHC,"[…], time 14 day",34%
same,MCV,"[…], time 14 day",61.5 fL
same,Mono,"[…], time 14 day",6%
same,Neu,"[…], time 14 day",12.6%
same,PT,"[…], time 14 day",11.5 s
same,Plat,"[…], time 14 day",115.3 x10_4/uL
same,RBC,"[…], time 14 day",683.2 x10_4/ul
same,Ret,"[…], time 14 day",3.1%
same,WBC,"[…], time 14 day",110 x10_2/uL
same,APTT,"[…], time 28 day",17.9 s
same,Bas,"[…], time 28 day",0%
same,Eos,"[…], time 28 day",1.6%
same,Fbg,"[…], time 28 day",215.8 mg/dL
same,Hb,"[…], time 28 day",15.8 g/dL
same,Ht,"[…], time 28 day",46.8%
same,Lym,"[…], time 28 day",80%
same,MCH,"[…], time 28 day",19.5 pg
same,MCHC,"[…], time 28 day",33.7%
same,MCV,"[…], time 28 day",57.7 fL
same,Mono,"[…], time 28 day",5.4%
same,Neu,"[…], time 28 day",13.4%
same,PT,"[…], time 28 day",11.9 s
same,Plat,"[…], time 28 day",117.3 x10_4/uL
same,RBC,"[…], time 28 day",812.6 x10_4/ul
same,Ret,"[…], time 28 day",3.1%
same,WBC,"[…], time 28 day",150.6 x10_2/uL
same,KIDNEY_L,"[…], time 7 day",1.1 g
same,KIDNEY_R,"[…], time 7 day",1.2 g
same,KIDNEY_TOTAL,"[…], time 7 day",2.3 g
same,KIDNEY_L,"[…], time 14 day",1.3 g
same,KIDNEY_R,"[…], time 14 day",1.3 g
same,KIDNEY_TOTAL,"[…], time 14 day",2.6 g
same,KIDNEY_L,"[…], time 28 day",1.4 g
same,KIDNEY_R,"[…], time 28 day",1.4 g
same,KIDNEY_TOTAL,"[…], time 28 day",2.9 g
same,LIVER,"[…], time 7 day",12.8 g
same,LIVER,"[…], time 14 day",15.1 g
same,LIVER,"[…], time 28 day",15.6 g
same,A/G,"[…], time 7 day",1.7
same,ALP,"[…], time 7 day",916.8 IU/L
same,ALT,"[…], time 7 day",36 IU/L
same,AST,"[…], time 7 day",62.8 IU/L
same,BUN,"[…], time 7 day",19.2 mg/dL
same,CRE,"[…], time 7 day",0.5 mg/dL
same,Ca,"[…], time 7 day",10.6 mg/dL
same,Cl,"[…], time 7 day",104.6 meq/L
same,DBIL,"[…], time 7 day",0.048 mg/dL
same,GLC,"[…], time 7 day",192 mg/dL
same,IP,"[…], time 7 day",6.9 mg/dL
same,K,"[…], time 7 day",4.9 meq/L
same,LDH,"[…], time 7 day",86 IU/L
same,Na,"[…], time 7 day",139.6 meq/L
same,PL,"[…], time 7 day",141.8 mg/dL
same,RALB,"[…], time 7 day",3.6 g/dL
same,TBIL,"[…], time 7 day",0.3 mg/dL
same,TC,"[…], time 7 day",65 mg/dL
same,TG,"[…], time 7 day",114.2 mg/dL
same,TP,"[…], time 7 day",5.7 g/dL
same,gamma-GTP,"[…], time 7 day",1.8 IU/L
same,A/G,"[…], time 14 day",1.6
same,ALP,"[…], time 14 day",789.8 IU/L
same,ALT,"[…], time 14 day",32.2 IU/L
same,AST,"[…], time 14 day",63.2 IU/L
same,BUN,"[…], time 14 day",19.6 mg/dL
same,CRE,"[…], time 14 day",0.5 mg/dL
same,Ca,"[…], time 14 day",10.5 mg/dL
same,Cl,"[…], time 14 day",104.4 meq/L
same,DBIL,"[…], time 14 day",0 mg/dL
same,GLC,"[…], time 14 day",201 mg/dL
same,IP,"[…], time 14 day",6.7 mg/dL
same,K,"[…], time 14 day",4.9 meq/L
same,LDH,"[…], time 14 day",97.2 IU/L
same,Na,"[…], time 14 day",140.6 meq/L
same,PL,"[…], time 14 day",149 mg/dL
same,RALB,"[…], time 14 day",3.7 g/dL
same,TBIL,"[…], time 14 day",0.3 mg/dL
same,TC,"[…], time 14 day",72.4 mg/dL
same,TG,"[…], time 14 day",152 mg/dL
same,TP,"[…], time 14 day",6 g/dL
same,gamma-GTP,"[…], time 14 day",2 IU/L
same,A/G,"[…], time 28 day",1.5
same,ALP,"[…], time 28 day",606.6 IU/L
same,ALT,"[…], time 28 day",27 IU/L
same,AST,"[…], time 28 day",57 IU/L
same,BUN,"[…], time 28 day",19.8 mg/dL
same,CRE,"[…], time 28 day",0.6 mg/dL
same,Ca,"[…], time 28 day",10.6 mg/dL
same,Cl,"[…], time 28 day",105.6 meq/L
same,DBIL,"[…], time 28 day",0.04 mg/dL
same,GLC,"[…], time 28 day",200 mg/dL
same,IP,"[…], time 28 day",5.7 mg/dL
same,K,"[…], time 28 day",4.5 meq/L
same,LDH,"[…], time 28 day",79 IU/L
same,Na,"[…], time 28 day",140 meq/L
same,PL,"[…], time 28 day",135 mg/dL
same,RALB,"[…], time 28 day",3.7 g/dL
same,TBIL,"[…], time 28 day",0.3 mg/dL
same,TC,"[…], time 28 day",58 mg/dL
same,TG,"[…], time 28 day",164.8 mg/dL
same,TP,"[…], time 28 day",6.2 g/dL
same,gamma-GTP,"[…], time 28 day",2.2 IU/L
